Assay results taken from US7417058B2, “Pharmaceutically active benzsulfonamide derivatives as inhibitors of protein junkinases” (Laboratoires Serono S.A., priority 2000, dated 2008).

Assays:
[1] = molecular target: GST-JNK3 (Homo sapiens, UniProt P53779); experiment: JNK3 in vitro assay (33P incorporation into c-Jun, SPA); format: biochemical; conditions: recombinant pre-activated GST-JNK3, biotinylated GST-c-Jun, 2 μM 33γ-ATP, 120 min RT
Protocol: (§1) JNK2 and -3 in vitro Assays:
(§2) The phosphorylation of c-jun by JNK2 or JNK3 may be followed by monitoring the incorporation of ^33P into c-jun following the protocol below. The inhibitory activity of the compounds according to formula I, in respect of c-jun phosphorylation through JNK, is determined by calculating the phosphorylation activity of a JNK in the presence or absence of the test compounds according to formula I.
(§3) JNK3 and/or -2 assays are performed in 96 well MTT plates: incubation of 0.5 μg of recombinant, pre-activated GST-JNK3 or GST-JNK2 with 1 μg of recombinant, biotinylated GST-c-Jun and 2 μM ^33γ-ATP (2 nCi/μl), in the presence or absence of compounds according to formula I and in a reaction volume of 50 μl containing 50 mM Tris-HCl, pH 8.0; 10 mM MgCl2; 1 mM Dithiothreitol, and 100 μM NaVO4. The incubation is performed for 120 min. at R.T and stopped upon addition of 200 μl of a solution containing 250 μg of Streptavidine-coated SPA beads (Amersham, Inc.)*, 5 mM EDTA, 0.1% Triton X-100 and 50 μM ATP, in phosphate saline buffer.
(§4) After incubation for 60 minutes at RT, beads are sedimented by centrifugation at 1500×g for 5 minutes, resuspended in 200 μl of PBS containing 5 mM EDTA, 0.1% Triton X-100 and 50 μM ATP and the radioactivity measured in a scintillation β counter, following sedimentation of the beads as described above. By replacing biotinylated GST-c Jun with biotinylated GST-1ATF2 or biotinylated myelin basic protein, this assay may also be used to measure inhibition of pre-activated p38 and ERK MAP Kinases, respectively.
(§5) The values indicated in respect of JNK2 and 3 refer to the IC50 (μM), i.e. the amount necessary to achieve 50% inhibition either of JNK3 or JNK2.

[2] = molecular target: GST-JNK2 (Homo sapiens, UniProt P45984); experiment: JNK2 in vitro assay (33P incorporation into c-Jun, SPA); format: biochemical; conditions: recombinant pre-activated GST-JNK2, biotinylated GST-c-Jun, 2 μM 33γ-ATP, 120 min RT
GST-JNK2, sequence (P45984 whole entry): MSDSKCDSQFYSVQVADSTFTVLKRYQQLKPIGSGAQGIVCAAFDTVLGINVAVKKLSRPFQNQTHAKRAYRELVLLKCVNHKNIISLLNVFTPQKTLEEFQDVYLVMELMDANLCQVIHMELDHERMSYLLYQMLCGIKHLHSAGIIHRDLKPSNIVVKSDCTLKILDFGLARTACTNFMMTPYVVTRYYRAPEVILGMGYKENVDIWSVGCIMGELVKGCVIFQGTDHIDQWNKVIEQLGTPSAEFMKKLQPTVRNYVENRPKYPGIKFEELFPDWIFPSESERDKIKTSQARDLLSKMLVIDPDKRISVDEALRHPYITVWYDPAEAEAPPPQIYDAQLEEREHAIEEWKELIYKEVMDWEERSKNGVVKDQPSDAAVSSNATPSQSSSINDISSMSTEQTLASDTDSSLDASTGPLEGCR
Protocol: as §1, §2, §3, §4, §5

GST-JNK3, sequence (P53779 whole entry): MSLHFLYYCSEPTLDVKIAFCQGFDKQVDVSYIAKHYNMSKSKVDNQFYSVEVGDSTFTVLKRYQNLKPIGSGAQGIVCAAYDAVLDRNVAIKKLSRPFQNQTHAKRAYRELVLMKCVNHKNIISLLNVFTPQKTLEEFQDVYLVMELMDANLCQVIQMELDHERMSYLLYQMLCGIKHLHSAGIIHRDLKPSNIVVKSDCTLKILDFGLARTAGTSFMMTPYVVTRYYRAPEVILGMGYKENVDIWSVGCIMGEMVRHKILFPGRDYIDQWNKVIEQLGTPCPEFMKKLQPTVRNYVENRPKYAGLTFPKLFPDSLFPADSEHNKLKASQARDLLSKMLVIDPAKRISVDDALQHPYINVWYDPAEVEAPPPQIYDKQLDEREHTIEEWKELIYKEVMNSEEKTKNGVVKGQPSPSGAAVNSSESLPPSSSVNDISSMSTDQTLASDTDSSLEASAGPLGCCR

Row | IC50 [1] | IC50 [2] | SMILES
1 | < 0.4 µM | < 0.7 µM | O=C(NCc1cccc(S(=O)(=O)N2CCC(Nc3cccc(S(=O)(=O)C(F)(F)F)c3)CC2)c1)c1ccc(Cl)cc1 [Example 3, 4-chloro-N-{3-[(4-{3-[(trifluoromethyl)sulfonyl]anilino}-1-piperidinyl)sulfonyl]benzyl}benzamide]
2 | < 0.4 µM | < 0.7 µM | O=C(NCc1ccc(S(=O)(=O)N2CCC(NCCc3cccc(C(F)(F)F)c3)CC2)cc1)c1ccc(Cl)cc1 [Example 11, 4-chloro-N-(4-{[4-({2-[3-(trifluoromethyl)phenyl]ethyl}amino)-1-piperidinyl]sulfonyl}benzyl)benzamide]
3 | < 0.4 µM | < 0.7 µM | CCCCCCNC1CCN(S(=O)(=O)c2ccc(NC(=O)c3ccc(Cl)cc3)cc2)C1 (centres unmarked) [Example 28, 4-chloro-N-(4-{[3-(hexylamino)-1-pyrrolidinyl]sulfonyl}phenyl)benzamide]
4 | < 0.4 µM | < 0.7 µM | O=C(NCc1ccc(S(=O)(=O)N2CCC(NCCc3cccc(C(F)(F)F)c3)C2)cc1)c1ccc(Cl)cc1 (centres unmarked) [Example 31, 4-chloro-N-(4-{[3-({2-[3-(trifluoromethyl)phenyl]ethyl)amino)-1-pyrrolidinyl]sulfonyl}benzyl)benzamide]
